# Experiments:
# GBM = system: GBM; parameters: method as in PMID 31505812; settings: GBM patients, vs 12.7 months; cited from earlier work
# HDAC2 = biological target: T1, HDAC2 (Homo sapiens, UniProt Q92769); assay: HDAC enzyme inhibition assay, HDAC2; assay type: biochemical; settings: 10-dose, 3-fold serial dilution starting at 10 μM
# T1 construct: purchased Reaction Biology Corporation, Malvern, PA (contract assay service)
# Method: (§1) Enzyme inhibition assays were performed by the Reaction Biology Corporation, Malvern, PA (http://www.reactionbiology.com).
# HDAC8 = biological target: T2, HDAC8 (Homo sapiens, UniProt Q9BY41); assay: HDAC enzyme inhibition assay, HDAC8; assay type: biochemical; settings: 10-dose, 3-fold serial dilution starting at 10 μM
# T2 construct: purchased Reaction Biology Corporation, Malvern, PA (contract assay service)
# T2 sequence (Q9BY41 1-377): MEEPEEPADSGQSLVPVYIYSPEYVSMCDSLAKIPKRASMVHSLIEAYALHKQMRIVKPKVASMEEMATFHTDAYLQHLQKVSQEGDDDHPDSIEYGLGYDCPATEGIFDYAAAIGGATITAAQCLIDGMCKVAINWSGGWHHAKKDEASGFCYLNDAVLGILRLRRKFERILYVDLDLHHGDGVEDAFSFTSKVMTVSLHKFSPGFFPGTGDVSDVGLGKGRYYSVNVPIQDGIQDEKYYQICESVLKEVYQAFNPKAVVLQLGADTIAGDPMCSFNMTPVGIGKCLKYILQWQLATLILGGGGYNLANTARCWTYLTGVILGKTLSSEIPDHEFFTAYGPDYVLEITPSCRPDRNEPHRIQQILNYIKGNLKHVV
# Method: as §1
# [1] = system: PT#3-R TMZ-resistant GBM cell line; assay: cells; assay type: cell-based; settings: MTT; for IC50: Homo sapiens, 72 h
# Method: The cytotoxic effects of these compounds were assessed using the MTT assay (Table 1 and Supporting Information IV).
# MTT assay was employed to evaluate the cytotoxicity of the synthesized compound against resistant GBM cells. The MTT (3-(4,5-dimethylthiazol-2-yl)-2,5-diphenyltetrazolium bromide, catalog no. AM0818-0005) powder was purchased from BIONOVAS (Ontario, Canada). The MTT was prepared at 10 mg/mL stock with ultrapure water and then stored at −20 °C. […] Before the experiment, the MTT stock was 10-fold diluted with the culture medium and then incubated with cells for 30 min. After the incubation, the MTT medium was discarded and added 300 μL of dimethyl sulfoxide (DMSO, cat. no. D2650, Sigma-Aldrich, MO, USA) to dissolve the cells.
# HDAC1 = biological target: T3, HDAC1 (Homo sapiens, UniProt Q13547); assay: HDAC enzyme inhibition assay, HDAC1; assay type: biochemical; settings: 10-dose, 3-fold serial dilution starting at 10 μM
# T3 construct: purchased Reaction Biology Corporation, Malvern, PA (contract assay service)
# T3 sequence (Q13547 whole entry): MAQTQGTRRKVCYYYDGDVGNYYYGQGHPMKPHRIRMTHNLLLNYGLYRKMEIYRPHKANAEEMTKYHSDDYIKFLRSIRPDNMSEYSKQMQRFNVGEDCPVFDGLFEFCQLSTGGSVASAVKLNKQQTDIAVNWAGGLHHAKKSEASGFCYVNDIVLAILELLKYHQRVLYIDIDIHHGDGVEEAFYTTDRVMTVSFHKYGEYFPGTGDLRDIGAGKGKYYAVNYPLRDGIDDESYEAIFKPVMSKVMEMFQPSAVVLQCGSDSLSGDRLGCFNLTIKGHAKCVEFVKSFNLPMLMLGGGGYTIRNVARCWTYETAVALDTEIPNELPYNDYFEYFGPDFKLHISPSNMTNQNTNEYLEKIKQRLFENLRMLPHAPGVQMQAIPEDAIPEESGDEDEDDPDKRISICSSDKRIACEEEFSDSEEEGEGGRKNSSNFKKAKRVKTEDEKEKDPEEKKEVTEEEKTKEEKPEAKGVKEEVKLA
# Method: as §1
# HDAC6 = biological target: T4, HDAC6 (Homo sapiens, UniProt Q9UBN7); assay: HDAC enzyme inhibition assay, HDAC6; assay type: biochemical; settings: 10-dose, 3-fold serial dilution starting at 10 μM
# T4 construct: purchased Reaction Biology Corporation, Malvern, PA (contract assay service)
# T4 sequence (Q9UBN7 1-1215): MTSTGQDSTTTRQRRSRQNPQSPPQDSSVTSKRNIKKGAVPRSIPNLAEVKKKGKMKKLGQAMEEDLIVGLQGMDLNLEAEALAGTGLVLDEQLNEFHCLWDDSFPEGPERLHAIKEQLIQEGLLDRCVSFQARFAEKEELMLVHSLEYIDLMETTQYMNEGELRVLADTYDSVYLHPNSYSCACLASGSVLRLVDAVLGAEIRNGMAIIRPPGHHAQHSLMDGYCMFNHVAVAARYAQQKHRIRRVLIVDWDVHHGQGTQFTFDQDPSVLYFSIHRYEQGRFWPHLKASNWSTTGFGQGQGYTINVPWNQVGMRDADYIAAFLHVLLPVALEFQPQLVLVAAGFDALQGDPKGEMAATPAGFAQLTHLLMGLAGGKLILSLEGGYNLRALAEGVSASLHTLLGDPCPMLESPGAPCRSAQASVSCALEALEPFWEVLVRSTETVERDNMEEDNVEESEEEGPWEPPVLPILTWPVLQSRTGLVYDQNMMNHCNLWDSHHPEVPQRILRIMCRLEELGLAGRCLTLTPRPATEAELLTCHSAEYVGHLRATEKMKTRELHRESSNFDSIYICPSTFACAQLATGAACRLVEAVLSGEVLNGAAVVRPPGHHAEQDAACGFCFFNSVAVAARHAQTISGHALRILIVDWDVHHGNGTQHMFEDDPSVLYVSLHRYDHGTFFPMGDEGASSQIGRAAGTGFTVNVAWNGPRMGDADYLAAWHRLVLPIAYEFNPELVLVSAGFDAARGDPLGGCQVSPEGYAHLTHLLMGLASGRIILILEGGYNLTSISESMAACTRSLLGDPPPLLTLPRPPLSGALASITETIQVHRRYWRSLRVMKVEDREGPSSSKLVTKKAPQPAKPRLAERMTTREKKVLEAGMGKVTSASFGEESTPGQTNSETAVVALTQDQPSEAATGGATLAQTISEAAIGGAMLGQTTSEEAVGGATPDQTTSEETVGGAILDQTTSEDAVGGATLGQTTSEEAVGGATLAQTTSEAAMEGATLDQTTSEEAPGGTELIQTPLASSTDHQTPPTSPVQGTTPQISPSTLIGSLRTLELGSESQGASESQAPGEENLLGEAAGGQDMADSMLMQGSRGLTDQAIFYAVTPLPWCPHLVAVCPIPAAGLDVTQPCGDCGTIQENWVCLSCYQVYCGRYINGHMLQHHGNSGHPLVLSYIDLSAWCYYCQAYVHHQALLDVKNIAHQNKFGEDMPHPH
# Method: as §1
# [2] = system: A172-R TMZ-resistant GBM cell line; assay: MTT cytotoxicity assay, A172-R; assay type: cell-based; settings: Homo sapiens, 72 h
# Method: (§2) We utilized linezolid as the structural foundation to confirm the cytotoxicity of linezolid-conjugated functional domains against glioblastoma (GBM). We combined it with the binding structures of anti-histone deacetylases (HDACs) (denoted as compounds 1–5 and 11–14), antitubulin (compound 6), anticyclooxygenase (COX) (compound 7), and anti-heat shock protein 90 (Hsp90) (compounds 8–10). These constructs were then administered to TMZ-resistant GBM cell lines A172R and PT#3R at concentrations ranging from 0 to 80 μM over 72 h. The cytotoxic effects of these compounds were assessed using the MTT assay (Table 1 and Supporting Information IV). […] Given the remarkable cytotoxicity of compound 1 on both A172-R and PT#3-R TMZ-resistant cells, this study subsequently focused on compound 1 for further in-depth investigation and mechanistic exploration. To validate that the cytotoxic effect of compound 1 on GBM is not attributed to linezolid alone, we separately treated the TMZ-resistant GBM cell line PT#3-R with compound 1 and linezolid. […] This confirms that the cytotoxicity of compound 1 against GBM is primarily attributable to the inhibitory structure of linezolid-conjugated HDAC (Figure 2A). Furthermore, we compared the cytotoxic effects of compound 1 on various wild-type brain tumor cell lines, including U87MG, PT#3, LN229 GBM cells, and CT-2A mouse astrocyte cell line as well as TMZ-resistant variants cell lines, including U87MG-R, PT#3-R, CT-2A-R, and T98G (MGMT-positive). […] Additionally, we further confirmed the efficacy of compound 1 in GBM treatment.
# MTT assay was employed to evaluate the cytotoxicity of the synthesized compound against resistant GBM cells. The MTT (3-(4,5-dimethylthiazol-2-yl)-2,5-diphenyltetrazolium bromide, catalog no. AM0818-0005) powder was purchased from BIONOVAS (Ontario, Canada). The MTT was prepared at 10 mg/mL stock with ultrapure water and then stored at −20 °C. All cells were seeded 2.5 × 10^4 per well in the 24-well plate for 24 h, followed by treating at different concentrations of compounds for 72 h. Before the experiment, the MTT stock was 10-fold diluted with the culture medium and then incubated with cells for 30 min. After the incubation, the MTT medium was discarded and added 300 μL of dimethyl sulfoxide (DMSO, cat. no. D2650, Sigma-Aldrich, MO, USA) to dissolve the cells. Finally, 100 μL of the mixture was transferred to measure the OD 595 nm absorbance.
# [3] = system: TMZ-resistant GBM cell lines A172R and PT#3R; assay: MTT cytotoxicity assay, TMZ-resistant GBM lines (statement in words); assay type: cell-based; settings: 0 to 80 μM, 72 h
# Method: as §2
# MTT assay was employed to evaluate the cytotoxicity of the synthesized compound against resistant GBM cells. The MTT (3-(4,5-dimethylthiazol-2-yl)-2,5-diphenyltetrazolium bromide, catalog no. AM0818-0005) powder was purchased from BIONOVAS (Ontario, Canada). The MTT was prepared at 10 mg/mL stock with ultrapure water and then stored at −20 °C. […] Finally, 100 μL of the mixture was transferred to measure the OD 595 nm absorbance.
# [4] = within 5–7 h; cited from earlier work
# [5] = parameters: method as in PMID 36921275; settings: meningitis patients; cited from earlier work
# T1 sequence (Q92769 whole entry): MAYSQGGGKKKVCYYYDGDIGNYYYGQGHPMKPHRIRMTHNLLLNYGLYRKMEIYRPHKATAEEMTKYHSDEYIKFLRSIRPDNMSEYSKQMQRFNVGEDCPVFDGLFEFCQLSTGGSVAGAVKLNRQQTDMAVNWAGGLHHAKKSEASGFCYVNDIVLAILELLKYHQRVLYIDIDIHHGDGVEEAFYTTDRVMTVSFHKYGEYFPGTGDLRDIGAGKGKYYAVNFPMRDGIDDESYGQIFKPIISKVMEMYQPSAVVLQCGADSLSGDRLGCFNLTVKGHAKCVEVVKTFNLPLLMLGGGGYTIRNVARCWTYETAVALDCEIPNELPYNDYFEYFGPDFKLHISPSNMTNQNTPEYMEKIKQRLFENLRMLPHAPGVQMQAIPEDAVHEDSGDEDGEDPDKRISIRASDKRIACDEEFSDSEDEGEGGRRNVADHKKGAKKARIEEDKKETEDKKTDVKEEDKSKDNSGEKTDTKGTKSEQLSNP
Compound,IC50 (HDAC2) [µM],IC50 (HDAC8) [µM],IC50 [1] [µM],IC50 (HDAC1) [µM],IC50 (HDAC6) [µM],IC50 [2] [µM],other results
"Cn1nnc2c(C(N)=O)ncn2c1=O [TMZ, temozolomide]",,,,,,,overall survival (GBM): 21.7 months
"O=C(CCCCCCC(=O)NC[C@H]1CN(c2ccc(N3CCOCC3)c(F)c2)C(=O)O1)NO [compound 2, (S)-N1-((3-(3-Fluoro-4-morpholinophenyl)-2-oxooxazolidin-5-yl)methyl)-N8-hydroxyoctanediamide]",6.43,1.11,164 ± 41.5,3.37,0.304,,
"O=C(NO)c1ccc(CNC[C@H]2CN(c3ccc(N4CCOCC4)c(F)c3)C(=O)O2)cc1 [compound 3, (S)-4-((((3-(3-Fluoro-4-morpholinophenyl)-2-oxooxazolidin-5-yl)methyl)amin-o)methyl)-N-hydroxybenzamide]",> 10,0.938,114 ± 20.8,> 10,0.061,,
"Nc1ccccc1NC(=O)c1ccc(CNC[C@H]2CN(c3ccc(N4CCOCC4)c(F)c3)C(=O)O2)cc1 [compound 4, (S)-N-(2-Aminophenyl)-4-((((3-(3-fluoro-4-morpholinophenyl)-2-oxooxazolidin-5-yl)methyl)amino)methyl)benzamide]",2.02,,41.4 ± 5.01,0.979,,19 ± 2.53,cytotoxicity in TMZ-resistant GBM [3]: exhibited the capacity to induce cytotoxicity
"O=C(/C=C/c1cccc(S(=O)(=O)NC[C@H]2CN(c3ccc(N4CCOCC4)c(F)c3)C(=O)O2)c1)NO [compound 5, (R,E)-3-(3-(N-((3-(3-Fluoro-4-morpholinophenyl)-2-oxooxazolidin-5-yl)methyl)su-lfamoyl)phenyl)-N-hydroxyacrylamide]",1.66,0.803,124 ± 17.5,0.735,0.095,,
"O=C(NC[C@H]1CN(c2ccc(N3CCOCC3)c(F)c2)C(=O)O1)c1cc(Cl)ccc1O [compound 7, (S)-5-Chloro-N-((3-(3-fluoro-4-morpholinophenyl)-2-oxooxazolidin-5-yl)methyl)-2-hydroxybenzamide]",,,52.1 ± 6.26,,,224 ± 80.3,
"CC(C)c1cc(C(=O)NC[C@H]2CN(c3ccc(N4CCOCC4)c(F)c3)C(=O)O2)c(O)cc1O [compound 8, (S)-N-((3-(3-Fluoro-4-morpholinophenyl)-2-oxooxazolidin-5-yl)methyl)-2,4-dihydroxy-5-isopropylbenzamide]",,,58 ± 6.23,,,65.2 ± 11.2,
"CC(C)c1cc(C(=O)N(C)C[C@H]2CN(c3ccc(N4CCOCC4)c(F)c3)C(=O)O2)c(O)cc1O [compound 9, (S)-N-((3-(3-Fluoro-4-morpholinophenyl)-2-oxooxazolidin-5-yl)methyl)-2,4-dihydroxy-5-isopropyl-N-methylbenzamide]",,,15.3 ± 2.1,,,35.6 ± 4.64,cytotoxicity in TMZ-resistant GBM [3]: exhibited the capacity to induce cytotoxicity
"CCN(C[C@H]1CN(c2ccc(N3CCOCC3)c(F)c2)C(=O)O1)C(=O)c1cc(C(C)C)c(O)cc1O [compound 10, (S)-N-((3-(3-Fluoro-4-morpholinophenyl)-2-oxooxazolidin-5-yl)methyl)-2,4-dihydroxy-5-isopropyl-N-ethylbenzamide]",,,48.8 ± 4.77,,,80.6 ± 9.99,
"CC(=O)NC[C@H]1CN(c2ccc(N3CCOCC3)c(F)c2)C(=O)O1 [linezolid, (S)-N-((3-(3-Fluoro-4-morpholinophenyl)-2-oxooxazolidin-5-yl)methyl)acetamide]",,,,,,,excreted in its original form in urine [4]: 30%; cytotoxicity in resistant GBM cells ([1]; 80 to 100 μM): did not induce cytotoxicity; penetration between blood and cerebrospinal fluid [5]: more than 70%
